Where two headings read alike, the source gives them in different places. Marks after values point to notes of the source that are not given here.
Assays:
[1] = test system: multiple myeloma-derived L363 cells; test: MTS cell proliferation assay in L363 cells; type: cell-based; details: for GI50: read-out: Cell efficacy, GI50 ± sd
Description: MTS Assay. […] 96™ AQueous One Solution Cell Proliferation Assay (MTS) kit (Promega, WI). Briefly, asynchronously growing L363 cells cultured in a 96-well plate were treated with the indicated compounds for 48 h.

HeLa cells = test: Mitotic arrest and antiproliferation in HeLa cells (DAPI staining, cell counts); type: cell-based; details: for induction of mitotic arrest (rounded cells with apoptotic or aberrant chromosome morphologies): 100 μM; for population of rounded cells with mitotically arrested or apoptotic chromosome morphologies: 25 μM, 12 h
Description: HeLa cells were cultured as recommended by the American Type Culture Collection (ATCC). […] Immunostaining was carried out using anti-Plk1 (Santa Cruz Biotechnology, Santa Cruz, CA), anti-Cep63 (MilliporeSigma), anti-CREST (Antibodies Incorp, Davis, CA), and anti-α-tubulin (Sigma, St. Louis, MO) antibodies.
(§1) To quantify fluorescence signal intensities, images were acquired under the same settings and the images obtained after the maximum-intensity projection of z-stacks were analyzed using the Zeiss ZEN v2.1 software (Carl Zeiss Microscopy, LLC). All the quantifications were performed with randomly chosen fields from at least three independent experiments. All values are given as mean±s. D. P values were calculated by unpaired t test from the mean data of each group in Graph Pad Prism (***P<0.001). The statistical details including the definitions and value of n (e.g., number of experimental replicates, cells, etc.) And standard deviations are provided herein.

[2] = Stability in mouse cytosol; type: in vitro ADME; details: for half-life: read-out: t1/2 Mouse cytosol
[3] = Stability in mouse liver microsomes; type: in vitro ADME; details: for half-life: read-out: t1/2 Mouse LM
[4] = Stability in rat liver microsomes (Table 10); type: in vitro ADME; details: for half-life: read-out: t1/2 Rat LM
[5] = Microsomal metabolic stability, rat liver microsomes (RLM)
[6] = Stability in human liver microsomes; type: in vitro ADME; details: for half-life: read-out: t1/2 Human LM
Stability in rat cytosol = type: in vitro ADME; details: for half-life: read-out: t1/2 Rat cytosol
[7] = Stability in human cytosol; type: in vitro ADME; details: for half-life: read-out: t1/2 Human cytosol
[8] = test system: Plk1 localization to centrosomes and kinetochores in HeLa cells; test: Immunostaining of Plk1 localization and spindle morphology in HeLa cells; type: cell-based; details: 25 μM, 2 h
Description: HeLa cells were cultured as recommended by the American Type Culture Collection (ATCC). Asynchronously growing cells were treated with control DMSO or the indicated concentration of 143. To reveal chromosome morphologies, cells were treated with 4′,6-diamidino-2-phenylindole (DAPI), fixed, and subjected to confocal microscopy. Immunostaining was carried out using anti-Plk1 (Santa Cruz Biotechnology, Santa Cruz, CA), anti-Cep63 (MilliporeSigma), anti-CREST (Antibodies Incorp, Davis, CA), and anti-α-tubulin (Sigma, St. Louis, MO) antibodies. Confocal images were acquired using a Zeiss LSM780 equipped with a plan-apochromat 63× (N.A. 1.4) oil-immersion objective lens, 34-channel GaAsP spectral detector (Carl Zeiss Microscopy, LLC.), and 8-bit, 0.5-μm z-steps.
as §1
To directly examine whether the observed mitotic arrest was the consequence of inhibiting Plk1 PBD function, immunostaining analysis was carried out to determine the ability of intracellular Plk1 to localize to centrosomes and kinetochores, an event that requires PBD-mediated protein-protein interaction (Lee et al., Trends Pharmacol. Sci. 36, 858-877 (2015); and Elia et al., Cell 115, 83-95 (2003)). […] A short treatment time (i.e., 2 h), which was intended to minimize a potential indirect effect of these inhibitors, was sufficient to delocalize greater than 70% of Plk1 signals from centrosomes (marked by anti-Cep63 signals) and 90% of those from kinetochores (marked by anti-CREST signals).

full-length human Plk1 = full-length human Plk1 (Homo sapiens (Human), UniProt P53350); test: ELISA-based Plk1 PBD-binding inhibition assay; details: Plk1 PBD; n = 3 unless noted
full-length human Plk1, sequence (P53350 whole entry): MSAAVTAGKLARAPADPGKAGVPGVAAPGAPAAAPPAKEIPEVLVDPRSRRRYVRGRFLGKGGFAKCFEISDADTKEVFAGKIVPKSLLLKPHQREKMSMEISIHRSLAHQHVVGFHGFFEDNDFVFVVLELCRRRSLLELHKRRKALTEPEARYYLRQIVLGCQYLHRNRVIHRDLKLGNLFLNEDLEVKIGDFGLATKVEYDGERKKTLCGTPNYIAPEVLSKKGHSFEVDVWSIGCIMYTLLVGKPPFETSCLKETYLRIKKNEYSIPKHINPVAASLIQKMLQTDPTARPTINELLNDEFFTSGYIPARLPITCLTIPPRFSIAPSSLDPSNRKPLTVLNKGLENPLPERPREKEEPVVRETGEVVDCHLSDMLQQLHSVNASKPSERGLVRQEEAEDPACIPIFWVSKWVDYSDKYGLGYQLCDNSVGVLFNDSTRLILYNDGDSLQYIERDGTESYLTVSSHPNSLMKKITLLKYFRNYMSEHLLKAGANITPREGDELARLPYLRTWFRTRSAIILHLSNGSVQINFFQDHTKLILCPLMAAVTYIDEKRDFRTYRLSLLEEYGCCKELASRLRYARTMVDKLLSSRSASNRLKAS
Description: An ELISA-based PBD-binding inhibition assay was performed essentially as described previously. […] The wells were washed once with PBS+0.05% Tween20 (PBST) and incubated with 200 μl of PBS plus 1% BSA (blocking buffer) for 1 h to prevent non-specific binding. HEK293A lysates expressing HA-EGFP-Plk1 were prepared in a TBSN [20 mM Tris-HCl (pH 8.0), 150 mM NaCl, 0.5% NP-40, 5 mM EGTA, 2 mM MgCl2, 1.5 mM EDTA, and protease inhibitor cocktail (Roche)]+20% DMSO buffer (˜20 μg total lysates in 100 μl buffer), mixed with the indicated amount of the competitors (p-T78 peptide and its derivative compounds) for 30 min, provided onto the biotinylated peptide-coated ELISA wells, and then incubated with constant rocking for 1 h at 25° C. Following the incubation, ELISA plates were washed 5 times with PBST. To detect bound HA-EGFP-Plk1, the plates were probed for 2 h with 100 μl/well of anti-HA antibody at a concentration of 0.5 μg/ml in the blocking buffer and then washed 5 times. The plates were further probed for 1 h with 100 μl/well of HRP-conjugated secondary antibody (GE Healthcare) at a 1:1,000 dilution in the blocking buffer. The plates were washed 5 times with PBST and incubated with 100 μl/well of 3,3′,5,5′-tetramethylbenzidine solution (Sigma-Aldrich, St. Louis, MO) as substrate until a desired absorbance was reached. The reactions were stopped by the addition of 100 μl/well of stop solution (Cell Signaling Technology, Danvers, MA). The optical density (O.D.) was measured at 450 nm by using a Perkin-Elmer Enspire Multimode Plate reader (PerkinElmer, Inc., Boston, MA). Data obtained from more than three independent experiments were analyzed by GraphPad (San Diego, CA) Prism software version 7.
ELISA-based PBD-binding Inhibition Assay. […] The reaction products were measured at 450 nm by using a Perkin-Elmer Enspire Multimode Plate reader (PerkinElmer, Inc., Boston, MA). Data obtained from more than three independent experiments were analyzed by GraphPad (San Diego, CA) Prism software version 7.

[9] = Homo sapiens, L-363, 48 h treatment

In the case of Cc1cc2c(s1)c(=O)n(CC1CC1)c1nnc(Sc3c([N+](=O)[O-])ncn3C)n21 [85 (NCK182), 4-(cyclopropylmethyl)-7-methyl-1-((1-methyl-4-nitro-1H-imidazol-5-yl)thio)thieno[2,3-e][1,2,4]triazolo[4,3-a]pyrimidin-5(4H)-one], the GI50 [1, 9] is reported as 3.11 µM.
In the case of CCCn1c(=O)c2cccc(F)c2n2c(=S)[nH]nc12 [compound 139, 9-fluoro-4-propyl-1-thioxo-2,4-dihydro-[1,2,4]triazolo[4,3-a]quinazolin-5(1H)-one], the “induction of mitotic arrest (rounded cells with apoptotic or aberrant chromosome morphologies)” value (HeLa cells) is reported as “lacked a detectable level of cellular response”.
With O=c1c2cc(F)ccc2n2c(=S)[nH]nc2n1CCc1ccc(Cl)cc1 [Example 43, 4-(4-chlorophenethyl)-7-fluoro-1-thioxo-2,4-dihydro-[1,2,4]triazolo[4,3-a]quinazolin-5(1H)-one] the “Cell efficacy, GI50 ± sd (μM)” value ([1]; 48 h treatment) was “failed to induce any a detectable level of cellular response” and the “population of rounded cells with mitotically arrested or apoptotic chromosome morphologies” value (HeLa cells) was “failed to show any of these phenotypes”.
For C[C@H]1C[C@@H]1n1c(=O)c2cc(F)ccc2n2c(=S)[nH]nc12 [compound 80], the “PAMPA” value was 188 ×10⁻⁶ cm/s, the “t1/2 Mouse cytosol” value [2] was greater than 2 h and the “t1/2 Mouse LM” value [3] was 1.7515 h. The “t1/2 Rat LM” value [4] was greater than 2 h, the “t1/2 (min, RLM)” value ([5]; rat liver microsomes) was greater than 30 min and the “Solub.” value (Aqueous solubility; aqueous solubility) was 13.2 µg/mL. For the same molecule, the “t1/2 Human LM” value [6] was 0.8472 h, the “t1/2 Rat cytosol” value (Stability in rat cytosol) was greater than 2 h and the “t1/2 Human cytosol” value [7] was greater than 2 h.
For NCCCn1c(=O)c2cc(F)ccc2n2c(=S)[nH]nc12 [compound 68], the “t1/2 Mouse cytosol” value [2] was greater than 2 h, the “t1/2 Mouse LM” value [3] was greater than 2 h and the “t1/2 Rat LM” value [4] was 1.7728 h. For the same molecule, the “t1/2 (min, RLM)” value ([5]; Free base) was >30^c >30^d min, the “t1/2 (min, RLM)” value ([5]; TFA salt) was >30^c >30^d min and the “Solub.” value (Aqueous solubility; Free base) was 27 µg/mL. The “Solub.” value (Aqueous solubility; TFA salt) was greater than 43 µg/mL, the “t1/2 Human LM” value [6] was greater than 2 h and the “t1/2 Rat cytosol” value (Stability in rat cytosol) was greater than 2 h. The “t1/2 Human cytosol” value [7] was greater than 2 h.
For CCCn1c(=O)c2scc(C)c2n2c(Sc3c([N+](=O)[O-])ncn3C)nnc12 [74 (NCK170), 8-methyl-1-((1-methyl-4-nitro-1H-imidazol-5-yl)thio)-4-propylthieno[2,3-e][1,2,4]triazolo[4,3-a]pyrimidin-5(4H)-one], the GI50 [1, 9] was 25.8 ± 0.26 µM.
Molecule CCCn1c(=O)c2cccc(F)c2n2c(Sc3c([N+](=O)[O-])ncn3C)nnc12 [73 (NCK167), 9-fluoro-1-((1-methyl-4-nitro-1H-imidazol-5-yl)thio)-4-propyl-[1,2,4]triazolo[4,3-a]quinazolin-5(4H)-one] has a GI50 [1, 9] of 14 ± 0.39 µM.
For CCCn1c(=O)c2sc(C)cc2n2c(Sc3c(C(F)(F)F)ncn3C)nnc12 [76 (NCK174), 7-methyl-1-((1-methyl-4-(trifluoromethyl)-1H-imidazol-5-yl)thio)-4-propylthieno[2,3-e][1,2,4]triazolo[4,3-a]pyrimidin-5(4H)-one], the GI50 [1, 9] was greater than 400 µM.
For CCCn1c(=O)c2cc(F)ccc2n2c(=S)[nH]nc12 [compound 64, 7-fluoro-4-propyl-1-thioxo-2,4-dihydro-[1,2,4]triazolo[4,3-a]quinazolin-5(1H)-one], the half-life [2] was greater than 2 h, the half-life [3] was greater than 2 h and the half-life [4] was 2 h. The “t1/2 (min, RLM)” value ([5]; rat liver microsomes) was greater than 30 min, the “PAMPA” value (PAMPA permeability) was 195 ×10⁻⁶ cm/s and the “Solub.” value (Aqueous solubility; aqueous solubility) was greater than 28 µg/mL. For the same molecule, the half-life [6] was greater than 2 h, the “induction of mitotic arrest (rounded cells with apoptotic or aberrant chromosome morphologies)” value (HeLa cells) was “lacked a detectable level of cellular response” and the half-life (Stability in rat cytosol) was greater than 2 h. The half-life [7] was greater than 2 h.
With CCCn1c(=O)c2cc(F)ccc2n2c(SC)nnc12 [compound 144, 7-fluoro-1-(methylthio)-4-propyl-[1,2,4]triazolo[4,3-a]quinazolin-5(4H)-one] the half-life [2] was greater than 2 h, the half-life [3] was 0.176 h and the half-life [4] was 0.439 h. For the same molecule, the half-life [6] was 0.241 h, the “induction of mitotic arrest (rounded cells with apoptotic or aberrant chromosome morphologies)” value (HeLa cells) was “induced mitotic arrest but at a somewhat reduced level” and the half-life (Stability in rat cytosol) was greater than 2 h. The half-life [7] was greater than 2 h.
For O=c1c2cc(F)ccc2n2c(=S)[nH]nc2n1CCc1ccncc1 [compound 85], the GI50 ([1]; 48 h treatment) was 3.11 µM, the “t1/2 (min, RLM)” value ([5]; rat liver microsomes) was greater than 30 min and the “Solub.” value (Aqueous solubility; aqueous solubility) was 10.9 µg/mL. For the same molecule, the “population of rounded cells with mitotically arrested or apoptotic chromosome morphologies” value (HeLa cells) was “induced Plk1 delocalization and mitotic arrest at a level similar to those of compound 75”.
In the case of CS(=O)(=O)NCCn1c(=O)c2cc(F)ccc2n2c(=S)[nH]nc12 [compound 75], the GI50 ([1]; 48 h treatment) is reported as 4.1 µM, the “Plk1 signals delocalized from centrosomes” value [8] is reported as “greater than 70%” and the “Plk1 signals delocalized from kinetochores” value [8] is reported as greater than 90%. The “effect on Plk1 localization” value [8] was “greatly diminished Plk1 signal intensities at both centrosomes and kinetochores”, the “t1/2 (min, RLM)” value ([5]; rat liver microsomes) was greater than 30 min and the “Solub.” value (Aqueous solubility; aqueous solubility) was greater than 53 µg/mL. For the same molecule, the “population of rounded cells with mitotically arrested or apoptotic chromosome morphologies” value (HeLa cells) was “approximately 60%”.
In the case of CC(=O)Nc1ccc2c(c1)c(=O)n(CCc1ccccc1)c1n[nH]c(=S)n21 [Example 14, N-(5-oxo-4-phenethyl-1-thioxo-1,2,4,5-tetrahydro-[1,2,4]triazolo[4,3-a]quinazolin-7-yl)acetamide], the “Cell efficacy, GI50 ± sd (μM)” value ([1]; 48 h treatment) is reported as “failed to induce any a detectable level of cellular response” and the “population of rounded cells with mitotically arrested or apoptotic chromosome morphologies” value (HeLa cells) is reported as “failed to show any of these phenotypes”.
Work on CCCn1c(=O)c2ccccc2n2c(=S)[nH]nc12 [compound 21, 4-propyl-1-thioxo-2,4-dihydro-[1,2,4]triazolo[4,3-a]quinazolin-5(1H)-one] yielded a half-life [2] greater than 2 h, a half-life [3] greater than 2 h and a half-life [4] greater than 2 h. For the same molecule, the half-life ([5]; rat liver microsomes) was greater than 0.5 h, the “Solub.” value (Aqueous solubility; aqueous solubility) was 21.3 µg/mL and the half-life [6] was greater than 2 h. For the same molecule, the IC50 (full-length human Plk1) was 1.03 ± 0.08 µM, the “induction of mitotic arrest (rounded cells with apoptotic or aberrant chromosome morphologies)” value (HeLa cells) was “lacked a detectable level of cellular response” and the half-life (Stability in rat cytosol) was greater than 2 h. For the same molecule, the half-life [7] was greater than 2 h.

— patent publication US20230365568A1, “PLK1 POLO BOX DOMAIN INHIBITORS AND METHOD OF TREATING CANCER” (The United States of America,as represented by the …, priority 2020, published 2023)
